Data reported in BindingDB's records for doi:10.1016/j.bmcl.2005.01.051 (Merck Research Laboratories, 2005).

Test: Inhibition of alphaIIb-beta3 integrin mediated platelet aggregation (PLAGGIN15)

SMILES | IC50
COc1ccc([C@@H](CCC[C@@H](O)CCc2ccc3c(n2)NCCC3)CC(=O)O)cn1 [(3S,7R)-7-Hydroxy-3-(6-methoxy-pyridin-3-yl)-9-(5,6,7,8-tetrahydro-[1,8]naphthyridin-2-yl)-nonanoic acid] | > 10 µM
COc1ccc([C@@H](CCC[C@H](O)CCc2ccc3c(n2)NCCC3)CC(=O)O)cn1 [(3S,7S)-7-Hydroxy-3-(6-methoxy-pyridin-3-yl)-9-(5,6,7,8-tetrahydro-[1,8]naphthyridin-2-yl)-nonanoic acid] | > 10 µM
COc1ccc([C@@H](CCCC(=O)CCc2ccc3c(n2)NCCC3)CC(=O)O)cn1 [(S)-3-(6-Methoxy-pyridin-3-yl)-7-oxo-9-(5,6,7,8-tetrahydro-[1,8]naphthyridin-2-yl)-nonanoic acid] | > 10 µM
